“Also recorded” adds a separate entry of the source.
Tests used:
[1] = tested on: islet cells / aortal endothelial cells; test: Chromium release cytotoxicity assay with IS-CD8+ effector cells; type: cell-based, mouse; details: for killing of endothelial cells isolated from NOD aorta by IS-CD8+ cells: 0.1 μM exogenous peptide
Procedure: Chromium release cytotoxicity assay—Pancreatic islets or monolayers of cultured aortal endothelial cells were dispersed into single-cell suspension by incubation in cell-dissociation buffer (Sigma), labeled with 100 μCi of Na2^51CrO4 (ICN Pharmaceuticals, Costa Mesa, Calif.) in 200 μl of complete Click's medium containing 5% FCS for 2 h at 37° C., washed three times, and co-cultured for 8-12 hours in 96-well plates (10^4 targets per well in 200 μl of Click's medium with 5% FCS) with effector IS CD8^+ cells at different effector-to-target ratios with different concentrations of InsB^15-23 peptide. To confirm the cytotoxic potential of IS-CD8^+ cells, labeled P815 mastocytoma (H2^d)cells were loaded with different concentrations of InsB^15-23 peptide and used as targets in the 4 hrs cytotoxicity assay. Specific cytotoxicity was based on the measurement of ^51Cr release in 100 μl aliquots of cell-free supernatant using a gamma-counter (Wallac, Turku, Finland) and calculated using the formula: Specific Cytotoxicity (%)=[(Experimental Release−Spontaneous Release)/(Maximum Release−Spontaneous Release)]×100%.

[2] = tested on: IS-CD8^+ cells adhesion to aortal endothelium from NOD mice; test: Parallel plate flow chamber adhesion assay under shear stress; type: cell-based, mouse
Procedure: Primary vascular endothelium cell culture—Isolation and culture of vascular endothelium from mouse aorta was performed as described (16). Briefly, neutralized collagen extracellular matrix was aliquoted into 24-well plates, allowed to gel at 37° C. for 60 min, and equilibrated overnight with complete endothelial cell medium consisting of complete Click's medium with 20% FCS, and 50 μg/ml of Endothelial Cell Growth Supplement (Becton-Dickinson). The segments of thoracic aorta from adult NOD mice were placed endothelial-side down onto the collagen gel. Thirty-six hours later, 1 ml of complete endothelial cell medium was carefully added. After 3-5 days, the collagen gel was digested with a 0.3% collagenase H (Sigma) solution and the released cells were transferred to a T25 tissue culture flask. After reaching confluence, cells were detached by incubation with cell-dissociation buffer (Sigma), and split at a 1:3 ratio. Passage 2 to 5 cells were used for the experiments.
Parallel Plate Flow Chamber and Adhesion Assay—Aortal endothelial cells were plated on 35 mm Costar tissue culture dishes and allowed to reach confluence. The cells were then treated for 2 -3 hrs with 100 μM of InsB^15-23 or LLO^91-99 peptides in complete endothelial cell medium. In some experiments anti-K^d (SF 1-1.1) blocking mAbs were added for 20 min before the adhesion assay. The adhesion of IS-CD8^+ cells under shear stress was examined with a parallel plate flow chamber obtained from Glycotech (Rockville, Md.) following the manufacturer's instructions and as previously described (17-19). A flow chamber with a 5-mm-wide gasket was used. Negative flow pressure was generated and controlled with an automated syringe pump (Braintree Scientific, Quincy, Mass.). IS-CD8^+ cells were labeled with CFSE as described above, pretreated in some experiments with 100 ng/ml of mouse recombinant SLC (R&D Systems) in Click's medium for 30 min, and injected at a concentration of 3×10^6/ml into the flow chamber. After IS-CD8^+ cells were allowed to settle on the plate for the indicated length of time, the flow rate was increased stepwise every 10 s in increments of […] (˜4 dynes/cm^2 shear stress) to a maximum of 7.7 ml/min (corresponding to ˜24 dynes/cm^2). Lymphocyte adhesion was visualized with a Leica inverted fluorescent microscope and recorded using a Spot-RT digital camera (Diagnostic Instruments, Sterling Heights, Mich.). Images were converted into digital movies and analyzed using Metamorph software (Universal Imaging Corp., Downingtown, Pa.). Labeled IS-CD8^+ cells were counted in frames separated by equal time intervals from the start of the stress. Adhesion of cells in each frame was determined as a fraction (%) of the initial number of cells in the frame preceding the start of flow.

[3] = tested on: G-protein-coupled chemokine receptors; test: Homing of PTx-treated DiI-labeled IS-CD8+ cells after injection into NOD mice; type: in vivo, mouse
Procedure: Fluorescent tracing and morphometric analysis—For trafficking studies, IS-CD8^+ and control T cells were incubated at 10^7 cells /ml for 30 min at 37° C. in the dark in complete medium containing 5% FCS and 0.0075 mg/ml of fluorescent dye didodecyltetramethylindocarbocyanine perchlorate (DiI) (Molecular Probes, Eugene, Oreg.), then washed 3 times with PBS. For analysis of short-term proliferation and adhesion studies IS-CD8^+ cells were stained in vitro with fluorescent dye carboxyfluorescein diacetate succinimidyl ester (CFSE) (Molecular Probes, Eugene, Oreg.) as described (12). 10^7 of labeled IS-CD8^+ cells were injected i.v. into irradiated (725 Rad, 24 h in advance) animals. Mice were sacrificed at time points indicated, and their spleens, pancreata, lymph nodes, peripheral blood and lungs were removed, lymphocytes were isolated as described (5), stained with allophycocyanin-conjugated anti-CD8 (53-6.7) antibody (BD Pharmingen), and subjected to FACS analysis. Alternatively, organs were fixed in 0.1 M periodate-lysine-paraformaldehyde phosphate buffer, sucrose-saturated, and freeze-molded in OCT compound (Sakura Finetek Inc., Torrance, Calif.). […] Cells were counted within areas relevant to a given islet (see FIG. 1 for representative image). […]

IS-CD8^+ cells = test: PTx-treated IS-CD8+ cells cultured in vitro (viability, peptide response); type: cell-based, mouse; details: 24 hrs after treatment (not shown)
Procedure: Treatment with pertussis toxin (PTx)—For treatment with PTx, IS-CD8^+ cells were harvested, resuspended at 10^7 cells/ml in complete medium containing 100 ng/ml of PTx (Sigma) and incubated for 2 h at 37° C. The final 30 min of incubation were combined with DiI-labeling. Treated cells were washed and injected into irradiated hosts or cultured under standard conditions in vitro.

LLO^91-99 peptide: control K^d-binding listeriolysin-derived peptide (GYKDGNEYI; UniProt P13128 91-99, looked up, fragment)
killing of endothelial cells isolated from NOD aorta by IS-CD8+ cells [1]: no effect

LYLVCGERG [InsB^15-23 peptide, synthetic insulin B chain peptide]
killing of endothelial cells isolated from NOD aorta by IS-CD8+ cells [1]: killed
lysis of islet β cells from H2k/d (C3D2) mice by IS-CD8+ cells ([1]; peptide added exogenously, 50:1 effector-to-target ratio): restored
adhesion of the T cells to endothelial monolayers ([2]; monolayers pre-cultivated with 100 μM peptide, no SLC, FIG. 7A): increased adhesion
contact time with endothelial cells prior to start of flow needed for adhesion significantly different from no-peptide control ([2]; peptide-treated monolayers, no SLC): 300 s

pertussis toxin [PTx]
distribution of PTx-treated IS-CD8+ cells in the spleen ([3]; NOD mice, vs untreated cells): avoided T cell zones
homing of PTx-treated IS-CD8+ cells to the pancreatic islets ([3]; cells treated in vitro with 100 ng/ml PTx for 2 h, injected into NOD mice, 24 hrs after injection): abolishes; also recorded: practically absent from the islets
response of PTx-treated IS-CD8+ cells to InsB15-23 peptide stimulation (IS-CD8^+ cells): responded normally
viability of IS-CD8+ cells treated with PTx (IS-CD8^+ cells): did not lose their viability

B1: SLC: mouse recombinant SLC (R&D Systems), chemokine CCL21 (protein, UniProt P84444 24-133, looked up)
C-C motif chemokine 21a: SDGGGQDCCLKYSQKKIPYSIVRGYRKQEPSLGCPIPAILFSPRKHSKPELCANPEEGWVQNLMRRLDQPPAPGKQSPGCRKNRGTSKSGKKGKGSKGCKRTEQTQPSRG
time necessary for adhesion ([2]; T cells pre-treated with 100 ng/ml SLC, endothelium with InsB15-23 peptide): 90 s
baseline adhesion in the absence of specific peptide ([2]; T cells pre-treated with SLC): increased
fraction of adherent cells ([2]; T cells pre-treated with SLC vs not exposed to SLC): larger

Source: patent publication US20050008639A1, “Methods of modulating homing of T cell by interruption of chemokine/chemokine receptor signaling” (priority 2003, published 2005)
